What was measured:
[1] = biological target: T1, androgen receptor (AR-LBD) (Rattus norvegicus, UniProt P15207); assay: Evaluation of androgen receptor affinity (PolarScreen Androgen Receptor Competitor Assay Kit, Red; fluorescence polarization); details: 22° C. for 5 hours, relative to binding rate of 1 μM DHT, read-out: AR affinity (pEC50) (converted)
T1 construct: 5 μL of 2×AR-LBD/Fluoromone AL Red Complex contained in the kit; purchased Invitrogen
T1 sequence (P15207 651-882 limits assumed): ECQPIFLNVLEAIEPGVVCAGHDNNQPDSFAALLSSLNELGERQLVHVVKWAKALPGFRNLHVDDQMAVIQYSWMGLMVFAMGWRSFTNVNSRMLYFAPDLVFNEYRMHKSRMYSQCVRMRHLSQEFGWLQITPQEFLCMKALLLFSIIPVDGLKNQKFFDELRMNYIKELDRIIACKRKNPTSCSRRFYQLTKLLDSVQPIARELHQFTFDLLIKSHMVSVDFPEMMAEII
Procedure, shortened: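 Compounds were mixed with AR-LBD/Fluoromone AL Red complex and incubated 5 h at 22° C before fluorescence polarization was read. Binding was expressed relative to 1 μM dihydrotestosterone, and pEC50 (concentration giving 50% of that binding) came from a 4-parameter fit.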

[2] = biological target: T2, human androgen receptor (Homo sapiens, UniProt P10275); assay: Reporter assay of an androgen receptor responsive sequence (luciferase, transiently transfected HEK293 cells); assay type: cell-based; details: 24 hours incubation, relative to activity of 100 nM DHT, read-out: AR transcriptive activity (pEC50) (converted)
T2 construct: expressed in transfected cells; host or cells: HEK293
T2 sequence (P10275 1-920): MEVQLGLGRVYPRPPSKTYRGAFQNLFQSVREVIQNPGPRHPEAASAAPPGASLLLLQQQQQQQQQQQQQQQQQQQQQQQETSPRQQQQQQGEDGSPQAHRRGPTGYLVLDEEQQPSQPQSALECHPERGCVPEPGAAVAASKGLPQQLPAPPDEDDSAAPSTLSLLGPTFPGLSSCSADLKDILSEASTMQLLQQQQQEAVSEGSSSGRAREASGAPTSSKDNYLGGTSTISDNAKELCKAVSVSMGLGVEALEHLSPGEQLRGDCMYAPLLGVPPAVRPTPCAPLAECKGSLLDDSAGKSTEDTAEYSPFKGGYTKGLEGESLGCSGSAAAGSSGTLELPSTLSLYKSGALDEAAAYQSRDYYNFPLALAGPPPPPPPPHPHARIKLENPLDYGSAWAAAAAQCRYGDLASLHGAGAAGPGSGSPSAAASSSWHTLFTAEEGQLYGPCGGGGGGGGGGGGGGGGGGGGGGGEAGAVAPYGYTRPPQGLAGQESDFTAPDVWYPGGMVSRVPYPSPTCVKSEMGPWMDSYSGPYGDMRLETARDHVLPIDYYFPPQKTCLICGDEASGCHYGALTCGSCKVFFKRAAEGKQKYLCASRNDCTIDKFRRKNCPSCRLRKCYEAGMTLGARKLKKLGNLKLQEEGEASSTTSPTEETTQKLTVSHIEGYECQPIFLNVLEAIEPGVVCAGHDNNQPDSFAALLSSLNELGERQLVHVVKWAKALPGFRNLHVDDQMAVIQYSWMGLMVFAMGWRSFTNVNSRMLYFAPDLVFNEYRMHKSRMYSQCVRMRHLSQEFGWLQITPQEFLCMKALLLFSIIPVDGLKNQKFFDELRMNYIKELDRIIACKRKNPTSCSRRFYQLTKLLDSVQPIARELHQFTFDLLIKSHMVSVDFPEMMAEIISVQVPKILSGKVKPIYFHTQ
Experimental: Reporter Assay of an Androgen Receptor Responsive Sequence
To examine the agonist activity of compounds for androgen, a reporter assay using an androgen receptor responsive sequence was conducted.
Using Lipofectamine 2000 (Invitrogen), a plasmid mixture (pGL4-ARE (200 ng/well), pcDNA3-hAR (20 ng/well), pRL-TK (Promega) (150 ng/well)) was transiently transfected into HEK293 cells. The contents of the plasmid (mixture) are as follows:
pGL4-ARE is a reporter plasmid containing firefly luciferase sequence under the control of androgen receptor responsive sequence; pcDNA3-hAR is a plasmid containing full-length sequence of human androgen receptor under the constant control of CMV promoter; pRL-TK is a plasmid containing Renilla Luciferase sequence under the control of herpes simplex virus thymidine kinase and used as an internal standard for evaluations of transfection efficiency and compound toxicity.
After the incubation of Lipofectamine 2000 and the plasmid mixture in Opti-MEM for 20 minutes, the mixture was mixed with a cell suspension prepared with Opti-MEM in the similar way, and the cell suspension was plated to a 96-well plate at 20000 cells/well. The transfection was conducted by incubating the plates under the condition of 5% CO2 at 37° C. for 3 hours. Three hours after the transfection, the culture medium was removed and a compound solution prepared by DMEM supplemented with 5% FBS and treated with charcoal was added, and the mixture was incubated under the condition of 5% CO2 at 37° C. for 24 hours. After the incubation with the compound, luciferase activities were measured with a luminometer using Dual-Glo™ Luciferase Assay System (Promega). The measurement of the luciferase activities was performed in accordance with the protocol recommended by Promega. The activity of the compound was determined by comparing to the activity of 100 nM of DHT, and quantified the logarithm value (pEC50) of reciprocal value of the effective concentration of the compound which is equal to 50% of the activity value by applying a 4 parameter goodness-of-fit calculation.

| EC50 [1] | EC50 [2] | SMILES |
| --- | --- | --- |
| 50.1 nM | 1580 nM | Cc1sc(N(CCc2cccc(Cl)c2)Cc2ccccc2)nc1C(=O)NS(C)(=O)=O [Compound 671, 2-[benzyl-[2-(3-chlorophenyl)ethyl]amino]-5-methyl-N-methylsulfonyl-thiazole-4-carboxamide] |
| 20 nM | 126 nM | Cc1oc(N(Cc2cc3ccccc3s2)c2ccc(C#N)cc2)nc1C(=O)NS(C)(=O)=O [Compound 618, 2-[N-(benzothiophen-2-ylmethyl)-4-cyano-anilino]-5-methyl-N-methylsulfonyl-oxazole-4-carboxamide] |
| > 2000 nM | > 10000 nM | Cc1sc(N(CCc2cccnc2)Cc2ccccc2)nc1C(=O)NS(C)(=O)=O [Compound 147, 2-[benzyl-[2-(3-pyridyl)ethyl]amino]-5-methyl-N-methylsulfonyl-thiazole-4-carboxamide] |
| 398 nM | 3980 nM | Cc1sc(N(Cc2ccnc(C(F)(F)F)c2)c2ccc(C#N)cc2)nc1C(=O)NS(C)(=O)=O [Compound 538, 2-[4-cyano-N-[[2-(trifluoromethyl)-4-pyridyl]methyl]anilino]-5-methyl-N-methylsulfonyl-thiazole-4-carboxamide] |
| 50.1 nM | 31.6 nM | CS(=O)(=O)NC(=O)c1nc(N(Cc2ccccc2)c2ccc(C#N)cc2)sc1Br [Compound 603, 2-(N-benzyl-4-cyano-anilino)-5-bromo-N-methylsulfonyl-thiazole-4-carboxamide] |
| 398 nM | 1000 nM | CS(=O)(=O)NC(=O)c1csc(N(Cc2ccccc2)c2ccc(C#N)cc2)n1 [Compound 597, 2-(N-benzyl-4-cyano-anilino)-N-methylsulfonyl-thiazole-4-carboxamide] |
| 316 nM | 631 nM | Cc1sc(N(Cc2ccc(F)cn2)c2ccc(C#N)cc2)nc1C(=O)NS(C)(=O)=O [Compound 517, 2-[4-cyano-N-[(5-fluoro-2-pyridyl)methyl]anilino]-5-methyl-N-methylsulfonyl-thiazole-4-carboxamide] |
| 31.6 nM | 398 nM | COCCCS(=O)(=O)NC(=O)c1nc(N(Cc2ccc(OC(F)F)cc2F)c2ccc(C#N)cc2)sc1C [Compound 523, 2-[4-cyano-N-[[4-(difluoromethoxy)-2-fluoro-phenyl]methyl]anilino]-N-(3-methoxypropylsulfonyl)-5-methyl-thiazole-4-carboxamide] |
| 50.1 nM | 631 nM | COCCCS(=O)(=O)NC(=O)c1nc(N(Cc2ccc(OC(F)F)nc2)c2ccc(C#N)cc2)sc1C [Compound 525, 2-[4-cyano-N-[[6-(difluoromethoxy)-3-pyridyl]methyl]anilino]-N-(3-methoxypropylsulfonyl)-5-methyl-thiazole-4-carboxamide] |
| 50.1 nM | 31.6 nM | Cc1sc(N(Cc2ccc(F)c(F)c2)c2ccc(C#N)cc2)nc1C(=O)NS(C)(=O)=O [Compound 97, 2-[4-cyano-N-[(3,4-difluorophenyl)methyl]anilino]-5-methyl-N-methylsulfonyl-thiazole-4-carboxamide] |
| 20 nM | 79.4 nM | Cc1sc(N(CCc2ccc(Cl)cc2)Cc2ccc(Cl)cc2)nc1C(=O)NS(C)(=O)=O [Compound 692, 2-[2-(4-chlorophenyl)ethyl-[(4-chlorophenyl)methyl]amino]-5-methyl-N-methylsulfonyl-thiazole-4-carboxamide] |
| 63.1 nM | 251 nM | Cc1oc(N(CCc2ccc(Cl)cc2)Cc2ccc(F)cc2)nc1C(=O)NS(C)(=O)=O [Compound 550, 2-[2-(4-chlorophenyl)ethyl-[(4-fluorophenyl)methyl]amino]-5-methyl-N-methylsulfonyl-oxazole-4-carboxamide] |
| 126 nM | 158 nM | Cc1sc(N(Cc2ccc(Cl)cc2)c2ccc(C(F)(F)F)nc2)nc1C(=O)NS(C)(=O)=O [Compound 470, 2-[(4-chlorophenyl)methyl-[6-(trifluoromethyl)-3-pyridyl]amino]-5-methyl-N-methylsulfonyl-thiazole-4-carboxamide] |
| 158 nM | 1580 nM | Cc1sc(N(CCc2ccc(F)cc2)c2ccc(C#N)cc2)nc1C(=O)NS(C)(=O)=O [Compound 81, 2-[4-cyano-N-[2-(4-fluorophenyl)ethyl]anilino]-5-methyl-N-methylsulfonyl-thiazole-4-carboxamide] |
| 251 nM | 7940 nM | CCc1oc(N(Cc2ccc(C(F)(F)F)nc2)c2ccc(C#N)cc2)nc1C(=O)NS(C)(=O)=O [Compound 639, 2-[4-cyano-N-[[6-(trifluoromethyl)-3-pyridyl]methyl]anilino]-5-ethyl-N-methylsulfonyl-oxazole-4-carboxamide] |
| 100 nM | 1000 nM | COCCCS(=O)(=O)NC(=O)c1nc(N(Cc2cnc(C(F)(F)F)c(Cl)c2)c2ccc(C#N)cc2)sc1C [Compound 531, 2-[N-[[5-chloro-6-(trifluoromethyl)-3-pyridyl]methyl]-4-cyano-anilino]-N-(3-methoxypropylsulfonyl)-5-methyl-thiazole-4-carboxamide] |
| 63.1 nM | 5010 nM | Cc1sc(N(Cc2csc3cccc(C)c23)c2ccc(C#N)cc2)nc1C(=O)NS(C)(=O)=O [Compound 464, 2-[4-cyano-N-[(4-methylbenzothiophen-3-yl)methyl]anilino]-5-methyl-N-methylsulfonyl-thiazole-4-carboxamide] |
|  | > 10000 nM | Cc1sc(N(CCC2CCCCC2)Cc2ccc(Cl)cc2)nc1C(=O)NS(=O)(=O)C1CC1 [Compound 730, 2-[(4-chlorophenyl)methyl-(2-cyclohexylethyl)amino]-N-cyclopropylsulfonyl-5-methyl-thiazole-4-carboxamide] |
| > 2000 nM |  | Cc1sc(N(CC(=O)C2CCCCC2)c2ccc(C#N)cc2)nc1C(=O)NS(C)(=O)=O [Compound 432, 2-(4-cyano-N-(2-cyclohexyl-2-oxo-ethyl)anilino)-5-methyl-N-methylsulfonyl-thiazole-4-carboxamide] |
| 1260 nM |  | Cc1sc(N(Cc2ccccc2)c2cccc(C(F)(F)F)c2)nc1C(=O)NS(C)(=O)=O [Example 224, 2-[N-benzyl-3-(trifluoromethyl)anilino]-5-methyl-N-methylsulfonyl-thiazole-4-carboxamide] |

| SMILES | EC50 [1] | EC50 [2] |
| --- | --- | --- |
| Cc1sc(N(Cc2ccc(OC3CCCC3)cc2)c2ccc(C#N)cc2)nc1C(=O)NS(C)(=O)=O [Compound 581, 2-[4-cyano-N-[[4-(cyclopentoxy)phenyl]methyl]anilino]-5-methyl-N-methylsulfonyl-thiazole-4-carboxamide] | 25.1 nM | 501 nM |
